The source of these data is US20240287019A1, “T-TYPE CALCIUM CHANNEL BLOCKER” (KINKI UNIVERSITY, priority 2021, published 2024).

In data set [1] the test system is mouse Na2S intraplantar injection pain models. The experiment in a line: Mouse Na2S intraplantar injection pain model (von Frey pain threshold). It counts as in vivo, mice. The note with it: for Pain Threshold: mean ± standard error. On the procedure:
In this test, the analgesic effect of the present compound was studied using mouse Na2S intraplantar injection pain models. Compound 5 was used as the present compound, and saline comprising 1% DMSO and 5% Tween 80 was used as vehicle.
Male ICR mice were received the intraplantar injection of 10 μmol/paw/10 μL of Na2S and T-type calcium channel-dependent pain was induced to prepare mouse Na2S intraplantar injection pain models. The mice were randomly divided into the vehicle+vehicle administration group (control group), vehicle+Na2S administration group, compound 5 (1 mg/kg)+Na2S administration group, compound 5 (3 mg/kg)+Na2S administration group and compound 5 (10 mg/kg)+Na2S administration group (n=7 to 11). Vehicle (V, 10 mL/kg) or 1, 3 or 10 mg/kg of compound 5 was intraperitoneally administered 30 minutes before Na2S was injected intraplantarlly in the hind paws of the mice.
Pain thresholds were measured every 15 minutes until 60 minutes after the administration of Na2S by the von Frey method to evaluate the analgesic effect of the present compound.

For data set [2], the target named is T1, human Cav3.2 T-type calcium channels (Homo sapiens, UniProt O95180).
T1 construct: expressed in transfected cells; host or cells: HEK 293 cells
As to the kind of experiment: Whole-cell patch clamp, T channel current in HEK 293 cells forcibly expressing human Cav3.2. The format is cell-based. The note with it: perfusion addition method; from percentage change in T-channel current before and after addition; n=3 to 17. As for the experimental part:
The effect of the compound of the present invention on human Cav3.2 T-type calcium channels was evaluated by whole-cell patch clamp method. As a control (vehicle), DMSO solution was used.
Human kidney cell-derived cell line, HEK 293 cells, in which human Cav3.2 T-type calcium channels were forcibly expressed, were seeded into cell culture dishes using DMEM medium containing 10% fetal bovine serum and cultured at 37° C. under 5% CO2 conditions. In the whole-cell patch clamp method, the following solutions were used as extracellular and intracellular solutions, the holding potential is set at −80 mV, and the barium current flowing as an inward current in a potential jump from −80 mV to −20 mV was measured with a patch clamp amplifier and AD converter (Axon Instruments). In order to eliminate the influence of high-threshold activated calcium channels, the value obtained by subtracting the current at 150 ms after the start of stimulation from the peak current was used for data analysis as the T channel current (T-current). The data analysis was performed using pClamp8 (Axon Instruments).
As for test compounds, each compound dissolved in extracellular solution was added directly to the dishes (direct addition method) or added to the dishes by perfusion (perfusion addition method).
According to a similar method to the perfusion addition method of Test Example 1, the effect of each compound of the present invention on human Cav3.2 T-type channels was evaluated. As the test compounds, pimozide at each concentration of 0.01 μM, 0.1 μM, 0.3 μM, 1.0 μM and 3.0 μM, compound 5, compound 14 and compound 15 were used and the test compounds were added by perfusion.
A general note: The patch-clamp technique gives a direct electrical read-out from membranes.

In data set [3] the test system is mouse intrabuccal injection pruritus models (histamine). As to the kind of experiment: Mouse intrabuccal injection pruritus model, histamine as pruritogen. The format is in vivo, mice. On the procedure:
(§1) In this test, the antipruritic effect of the present compound was studied using mouse intrabuccal injection pruritus models in which histamine or chloroquine is intra-buccally administered as a pruritogen. Compound 5 and compound 38 were used as the present compound, and saline comprising 1% DMSO and 5% Tween 80 was used as control. Compound 5 and compound 38 were dissolved into saline comprising 1% DMSO and 5% Tween 80 to adjust the concentration of each compound. Also, male ICR mice with a body weight of 23 to 40 g were used as experimental animals and the animals were freely given tap water and solid feed and was kept under 12-hour light/dark cycle at room temperature of about 24° C.
According to the method in Shimada SG & LaMotte R H (2008) Behavioral differentiation between itch and pain in mouse. […] After the acclimatization, saline in a volume of 10 μL/site, histamine in a volume of 300 μL/site or chloroquine in a volume of 100 μL/site was intradermally administered to the shaved cheeks of the mice without anesthesia, and their subsequent behavior was recorded on video for 60 minutes. […] At the later date, the video was replayed and the number of occurrences of the scratching bouts by the hind paws to the administration site (as pruritus response) was counted for 60 minutes to evaluate the antipruritic effect of the present compound. […]

In data set [4] the test system is mouse Na2S intrabuccal injection pruritus models. The experiment in a line: Mouse Na2S intrabuccal injection pruritus model (scratching bouts and wipes). The format is in vivo, mice. On the procedure:
In this test, the antipruritic and analgesic effects of the present compound was studied using mouse Na2S intrabuccal injection pruritus models. Compound 5 was used as the present invention and saline comprising 1% DMSO and 5% Tween 80 was used as vehicle.
Male ICR mice were received the intrabuccal injection of 3.8 μmol (300 μg/10 μL) of Na2S and T-type calcium channel-[…] pain was induced to prepare mouse Na2S intrabuccal injection pruritus models. 18 mice were randomly divided into vehicle+saline administration group (control group), vehicle+Na2S administration group and compound 5 (10 mg/kg)+Na2S administration group (6 mice per group). The mice in each group were anesthetized with isoflurane and their right cheek hairs were shaved the day or a few days before the experiment. On the day of the experiment, the mice were placed in an acrylic observation cage with mirrors on all four sides and allowed to acclimate the environment for at least 30 minutes. After the acclimatization, Na2S was intradermally administered to the shaved cheeks of the mice without anesthesia, and their subsequent behavior was recorded on video. Compound 5 (10 mg/kg) or vehicle (V, 10 mL/kg) was intraperitoneally administered 30 minutes before Na2S was administered. At the later date, the video was replayed and the number of occurrences of the scratching bouts by the hind paws to the administration site (as pruritus response) and the wipes (wiping) by the forepaws (as pain response) was counted for 60 minutes to evaluate the antipruritic and analgesic effects of the present compound.

The subject of data set [5] is mouse intrabuccal injection pruritus models (chloroquine). As to the kind of experiment: Mouse intrabuccal injection pruritus model, chloroquine as pruritogen. The note with it: for Scratching bouts (counts/60 minutes) (n): mean ± standard error (n); for inhibition of the histamine-independent scratching bouts: 10 mg/kg, chloroquine, result in words. The format is in vivo, mice. As for the experimental part:
as §1
According to the method in Shimada SG & LaMotte R H (2008) Behavioral differentiation between itch and pain in mouse. Pain 139 (3): 681-687, histamine or chloroquine, which is a pruritogen, was dissolved into saline and the solution was administered into the buccal skin of each male ICR mouse and pruritus was induced to prepare mouse intrabuccal injection pruritus models. The mice were randomly divided into saline comprising 1% DMSO and 5% Tween 80 (Solvent 1)+saline (Solvent 2) administration group (control group), Solvent 1+histamine administration group, compound 5 (10 mg/kg)+histamine administration group, Solvent 1+chloroquine administration group, compound 5 (10 mg/kg)+chloroquine administration group, compound 38 (1 mg/kg)+chloroquine administration group, compound 38 (3 mg/kg)+chloroquine administration group and compound 38 (10 mg/kg)+chloroquine administration group (n=6 to 10). The mice in each group were anesthetized with isoflurane and their right cheek hairs were shaved a few days before the experiment. On the day of the experiment, the mice were placed in an acrylic observation cage (10×14×30 cm) with mirrors on all four sides and allowed to acclimate the environment for at least 30 minutes. After the acclimatization, saline in a volume of 10 μL/site, histamine in a volume of 300 μL/site or chloroquine in a volume of 100 μL/site was intradermally administered to the shaved cheeks of the mice without anesthesia, and their subsequent behavior was recorded on video for 60 minutes. Compound 5 (10 mg/kg), compound 38 (1 mg/kg, 3 mg/kg or 10 mg/kg) or Solvent 1 (10 mL/kg) was intraperitoneally administered 30 minutes before saline or the pruritogen was administered. At the later date, the video was replayed and the number of occurrences of the scratching bouts by the hind paws to the administration site (as pruritus response) was counted for 60 minutes to evaluate the antipruritic effect of the present compound.
The test results are shown in Table 5 to Table 7 and FIG. 8 to FIG. 10. Table 5 and FIG. 8 show the mean value±standard error (the total (n)) of the total counts of the scratching bouts by the hind paws to the administration site for 60 minutes after the administration in control group, Solvent 1+histamine administration group and compound 5 (10 mg/kg)+histamine administration group and the graph thereof, and Table 6 and FIG. 9 show the mean value±standard error (the total (n)) of the total counts of the scratching bouts by the hind paws to the administration site for 60 minutes after the intrabuccal administration on the right side in control group, Solvent 1+chloroquine administration group, compound 5(10 mg/kg)+chloroquine administration group and the graph thereof, and Table 7 and FIG. 10 show the mean value±standard error (the total (n)) of the total counts of the scratching bouts by the hind paws to the administration site for 60 minutes after the intrabuccal administration on the right side in control group, Solvent 1+chloroquine administration group, compound 38 (1 mg/kg)+chloroquine administration group, compound 38 (3 mg/kg)+chloroquine administration group and compound 38 (10 mg/kg)+chloroquine administration group and the graph thereof.

In data set [6] the test system is male ddY mice. The experiment in a line: Catalepsy-inducing effect (bar test) after administration in the lateral ventricle. The format is in vivo. The note with it: 8 nmol in the lateral ventricle; 30-180 minutes after administration; result in words. An excerpt:
In this test, the catalepsy-inducing effect of the present compound was studied to evaluate whether the present compound can inhibit side effects caused by the dopamine D2 receptor blockade. Compound 5 and compound 12 were used as the present compound and 2% DMSO solution was used as vehicle. Also, pimozide was used as the control drug.
16 male ddY mice were randomly divided into compound 5 administration group, compound 12 administration group, pimozide administration group and vehicle administration group (4 mice per group). The mice in each group were received the administration of 8 nmol (0.8 mM/10 μL) of compound 5, compound 12 and pimozide, and 10 μL of vehicle in the lateral ventricle. both forepaws of the mice were forced to place themselves on a horizontal iron bar (Height: 5 cm) and the time of keeping the posture (catalepsy) was measured to evaluate the presence or absence of catalepsy. The measurement was terminated when the forepaws touched the floor or when the mouse was on the bar.

The mark [7] stands for this setting: 10 mg/kg i.p. + Na2S, result in words.
Setting [8] is: 10 mg/kg intraperitoneally 30 minutes before Na2S, mean ± standard error, 6 mice.

T1 sequence (O95180 whole entry): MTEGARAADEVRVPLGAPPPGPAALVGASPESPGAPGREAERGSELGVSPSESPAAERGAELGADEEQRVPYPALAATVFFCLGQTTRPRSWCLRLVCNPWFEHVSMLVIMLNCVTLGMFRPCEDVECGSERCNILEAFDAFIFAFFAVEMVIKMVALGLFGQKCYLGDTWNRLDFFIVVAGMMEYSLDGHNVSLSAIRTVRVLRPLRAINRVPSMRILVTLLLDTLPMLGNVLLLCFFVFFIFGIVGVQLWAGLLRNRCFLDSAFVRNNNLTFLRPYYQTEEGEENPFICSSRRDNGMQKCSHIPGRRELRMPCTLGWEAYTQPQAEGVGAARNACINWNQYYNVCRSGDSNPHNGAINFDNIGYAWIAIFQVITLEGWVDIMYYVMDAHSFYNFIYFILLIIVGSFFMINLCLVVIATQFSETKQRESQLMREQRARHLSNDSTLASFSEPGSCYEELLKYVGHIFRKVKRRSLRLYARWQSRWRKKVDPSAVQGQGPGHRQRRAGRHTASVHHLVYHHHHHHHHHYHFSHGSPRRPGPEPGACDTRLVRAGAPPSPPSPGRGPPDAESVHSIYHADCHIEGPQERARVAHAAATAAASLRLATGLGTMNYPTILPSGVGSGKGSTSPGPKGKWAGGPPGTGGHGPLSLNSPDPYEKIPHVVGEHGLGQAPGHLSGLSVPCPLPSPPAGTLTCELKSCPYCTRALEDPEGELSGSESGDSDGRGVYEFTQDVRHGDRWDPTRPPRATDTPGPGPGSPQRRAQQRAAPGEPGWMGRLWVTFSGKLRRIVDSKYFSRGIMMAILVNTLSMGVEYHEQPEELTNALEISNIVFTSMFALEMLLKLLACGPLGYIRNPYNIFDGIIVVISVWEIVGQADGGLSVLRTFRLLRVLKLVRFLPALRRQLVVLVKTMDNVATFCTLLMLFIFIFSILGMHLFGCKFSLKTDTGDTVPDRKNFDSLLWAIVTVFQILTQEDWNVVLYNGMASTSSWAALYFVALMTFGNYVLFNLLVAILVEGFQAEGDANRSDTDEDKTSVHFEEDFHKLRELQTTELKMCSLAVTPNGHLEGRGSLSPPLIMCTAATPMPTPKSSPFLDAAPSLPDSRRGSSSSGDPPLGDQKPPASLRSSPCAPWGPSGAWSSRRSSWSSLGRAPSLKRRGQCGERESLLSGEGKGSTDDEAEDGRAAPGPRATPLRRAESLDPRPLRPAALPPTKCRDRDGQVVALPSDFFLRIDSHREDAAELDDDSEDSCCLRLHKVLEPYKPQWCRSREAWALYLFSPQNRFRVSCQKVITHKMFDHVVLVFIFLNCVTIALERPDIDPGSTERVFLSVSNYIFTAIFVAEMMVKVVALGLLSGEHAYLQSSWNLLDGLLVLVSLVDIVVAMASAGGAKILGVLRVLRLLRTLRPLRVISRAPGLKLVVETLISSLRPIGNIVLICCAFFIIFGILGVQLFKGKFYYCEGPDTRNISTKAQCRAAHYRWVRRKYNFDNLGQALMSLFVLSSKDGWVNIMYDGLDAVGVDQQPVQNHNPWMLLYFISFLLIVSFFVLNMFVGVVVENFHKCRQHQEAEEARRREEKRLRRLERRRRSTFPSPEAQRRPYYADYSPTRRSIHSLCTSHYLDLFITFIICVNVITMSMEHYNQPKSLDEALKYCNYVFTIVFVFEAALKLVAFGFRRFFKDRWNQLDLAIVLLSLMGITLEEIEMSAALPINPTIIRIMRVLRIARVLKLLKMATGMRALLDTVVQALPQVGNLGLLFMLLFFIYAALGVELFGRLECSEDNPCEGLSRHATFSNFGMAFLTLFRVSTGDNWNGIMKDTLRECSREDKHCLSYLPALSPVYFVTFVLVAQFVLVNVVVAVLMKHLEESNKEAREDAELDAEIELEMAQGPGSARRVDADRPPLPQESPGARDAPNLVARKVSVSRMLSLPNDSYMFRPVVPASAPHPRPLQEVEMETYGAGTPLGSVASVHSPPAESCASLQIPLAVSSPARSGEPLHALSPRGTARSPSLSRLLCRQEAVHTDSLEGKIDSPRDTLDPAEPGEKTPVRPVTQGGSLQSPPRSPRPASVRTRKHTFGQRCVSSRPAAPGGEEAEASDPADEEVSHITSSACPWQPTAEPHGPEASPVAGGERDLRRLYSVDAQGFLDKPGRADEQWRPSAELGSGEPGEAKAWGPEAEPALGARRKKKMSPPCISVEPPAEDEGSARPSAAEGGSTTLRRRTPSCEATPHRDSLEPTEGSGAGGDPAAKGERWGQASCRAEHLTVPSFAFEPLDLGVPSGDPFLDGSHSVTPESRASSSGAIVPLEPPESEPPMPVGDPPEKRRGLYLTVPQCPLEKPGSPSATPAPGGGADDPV

The term IC50 denotes the midpoint of a concentration-inhibition curve. For `O=c1n(CCCCc2ccccc2)c2ccccc2n1C1CCN(CCCCc2ccccc2)CC1` [Compound 5, 1-(4-phenylbutyl)-3-(1-(4-phenylbutyl)piperidin-4-yl)-1H-benzo[d]imidazol-2(3H)-one], the “Pain Threshold” value amounted to 0.317 ± 0.082 g in data set [1] (1 mg/kg i.p. + Na2S, 15 minutes after administration); 0.296 ± 0.078 g in data set [1] (1 mg/kg i.p. + Na2S, 30 minutes after administration); 0.347 ± 0.079 g in data set [1] (3 mg/kg i.p. + Na2S, 15 minutes after administration); 0.417 ± 0.064 g in data set [1] (3 mg/kg i.p. + Na2S, 30 minutes after administration); 0.514 ± 0.054 g in data set [1] (10 mg/kg i.p. + Na2S, 15 minutes after administration); 0.604 ± 0.049 g in data set [1] (10 mg/kg i.p. + Na2S, 30 minutes after administration). Also, the inhibition of pain result was “pain was inhibited” in data set [1] (compound 5 administration group + Na2S, result in words) and “significantly inhibited” in data set [4] (setting [7]). The IC50 in data set [2] was 461 nM. Also, the “Scratching bouts (counts/60 minutes) (n)” value in data set [3] (10 mg/kg i.p. 30 minutes before histamine, mean ± standard error (n)) is recorded as 13.3 ± 5.0 (7) counts/60 minutes; in data set [5] (10 mg/kg i.p. 30 minutes before chloroquine, Table 6) it was 24.9 ± 5.5 (10) counts/60 minutes. In addition, in data set [3] (10 mg/kg, result in words), the “inhibition of the histamine-dependent scratching bouts” value is “strongly inhibited”. Also, the inhibition of pruritus result in data set [4] (setting [7]) was “significantly inhibited”. Also, the “Scratching bouts (counts/60 minutes)” value in data set [4] (setting [8]) is 36.2 ± 9.5 counts/60 minutes. In addition, the “Wipes (counts/60 minutes)” value in data set [4] (setting [8]) stood at 30.7 ± 4.0 counts/60 minutes. In addition, in data set [5], the “inhibition of the histamine-independent scratching bouts” value is reported as “strongly inhibited”. Also, in data set [6], the “catalepsy (keeping time of posture)” value is on record as “catalepsy was induced”.

On to `O=c1n(CCCCc2ccccc2)c2ccccc2n1C1CCN(CCCc2ccccc2)CC1` [Compound 14, 1-(4-Phenylbutyl)-3-(1-(3-phenylpropyl)piperidin-4-yl)-1H-benzo[d]imidazol-2(3H)-one], for which the 50% inhibitory concentration (IC50) in data set [2] was 337 nM.

For `O=C(CCCc1ccccc1)N1CCC(n2c(=O)n(CCCCc3ccccc3)c3ccccc32)CC1` [Compound 15, 1-(1-(4-Phenylbutanoyl)piperidin-4-yl)-3-(4-phenylbutyl)-1H-benzo[d]imidazol-2(3H)-one], the IC50 in data set [2] turned out to be 153 nM.

For `O=c1n(CCCCc2cccc(F)c2)c2ccccc2n1C1CCN(CCCCc2cccc(F)c2)CC1` [Compound 38, 1-(4-(3-Fluorophenyl)butyl)-3-(1-(4-(3-fluorophenyl)butyl)piperidin-4-yl)-1H-benzo[d]imidazol-2(3H)-one], the “Scratching bouts (counts/60 minutes) (n)” value is 73.0 ± 10.5 (6) counts/60 minutes in data set [5] (1 mg/kg i.p. 30 minutes before chloroquine, Table 7); 50.7 ± 9.7 (6) counts/60 minutes in data set [5] (3 mg/kg i.p. 30 minutes before chloroquine, Table 7); 28.8 ± 10.5 (8) counts/60 minutes in data set [5] (10 mg/kg i.p. 30 minutes before chloroquine, Table 7). Besides, the “inhibition of the histamine-independent scratching bouts” value in data set [5] is reported as “strongly inhibited”.

Regarding `O=c1[nH]c2ccccc2n1C1CCN(CCCC(c2ccc(F)cc2)c2ccc(F)cc2)CC1` [Pimozide, 1-{1-[4,4-Bis(4-fluorophenyl)butyl]piperidin-4-yl}-1,3-dihydro-2H-benzimidazol-2-one, reference compound], the IC50 in data set [2] is 157 nM.
